# Patent US6875760B2 (Novo Nordisk A/S, priority 1999, dated 2005)
# Target: T1, human glucagon receptor (Homo sapiens, UniProt P47871)
# T1 construct: expressed in transfected cells; host or cells: BHK (baby hamster kidney) cells
# Assay: Glucagon Binding Assay (III)
# Conditions: BHK cell membranes, WGA SPA beads, 125I-glucagon; read-out: Glu Bd Assay (III) IC50
# Procedure, shortened: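 Membranes from BHK cells transfected with the human receptor, prepared at 4 °C, were used in a WGA-bead scintillation proximity binding format. Plates were shaken for 4 hours, left to settle 8–48 hours and then counted. Non-specific binding was defined with 500 nM glucagon.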
# T1 sequence (P47871 26-477): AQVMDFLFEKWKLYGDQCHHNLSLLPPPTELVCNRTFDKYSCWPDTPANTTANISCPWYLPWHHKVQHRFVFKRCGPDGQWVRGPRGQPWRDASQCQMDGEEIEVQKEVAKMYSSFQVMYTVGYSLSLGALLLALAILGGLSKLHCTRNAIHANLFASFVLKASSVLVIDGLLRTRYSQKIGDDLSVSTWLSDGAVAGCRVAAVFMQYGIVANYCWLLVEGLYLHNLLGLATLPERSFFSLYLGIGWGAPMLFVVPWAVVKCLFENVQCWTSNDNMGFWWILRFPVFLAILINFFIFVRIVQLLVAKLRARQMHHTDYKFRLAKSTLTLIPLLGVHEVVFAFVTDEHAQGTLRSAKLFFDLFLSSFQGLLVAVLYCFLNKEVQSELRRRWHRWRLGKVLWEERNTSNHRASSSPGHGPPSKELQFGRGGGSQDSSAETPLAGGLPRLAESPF
row,Structure (SMILES),IC50
1,"O=C(O)CCNC(=O)c1ccc(CN(C(=O)Nc2ccc(OC(F)(F)F)cc2)C2CCN(C(=O)C3CC3)CC2)cc1 [Example 381, 3-{4-[1-(1-Cyclopropanecarbonylpiperidin-4-yl)-3-(4-trifluoromethoxyphenyl)ureidomethyl]benzoylamino}propionic acid]",1980 nM
2,"CCC1CCC(N(Cc2ccc(C(=O)NCCC(=O)O)cc2)C(=O)Nc2ccc(OC(F)(F)F)cc2)CC1 (centres unmarked) [Example 83, 3-{4-[1-(4-Ethylcyclohexyl)-3-(4-trifluoromethoxyphenyl)ureidomethyl]benzoylamino}propionic acid]",203 nM
3,"CCCCOC(=O)c1ccc(NC(=O)N(Cc2ccc(C(=O)NCCC(=O)O)cc2)CC(CC)CCCC)cc1 (centres unmarked) [Example 37, 4-[3-[4-(2-Carboxyethylcarbamoyl)benzyl]-3-(2-ethylhexyl)ureido]benzoic acid butyl ester]",145 nM
4,"CCCCOc1ccc(NC(=O)N(Cc2ccc(C(=O)NCCC(=O)O)cc2)C2CCC(C(C)(C)C)CC2)cc1 (centres unmarked) [Example 69, 3-{4-[3-(4-Butoxyphenyl)-1-(4-tert-butyl-cyclohexyl)ureidomethyl]benzoylamino}propionic acid]",90 nM
5,"CC(C)(C)C1CCC(N(Cc2ccc(C(=O)NCCC(=O)O)cc2)C(=O)Oc2ccc([N+](=O)[O-])cc2)CC1 (centres unmarked) [Example 399, 3-(4-{[(4-tert-Butylcyclohexyl)-(4-nitrophenoxycarbonyl)amino]methyl}benzoylamino)propionic acid]",120 nM
6,"CC(C)(C)C1CCC(N(Cc2ccc(C(=O)NCCC(=O)O)cc2)C(=O)Nc2ccc(Cl)c(Cl)c2)CC1 (centres unmarked) [Example 16, 3-{4-[1-(4-tert-Butylcyclohexyl)-3-(3,4-dichlorophenyl)ureidomethyl]benzoylamino}propionic acid]",39 nM
7,"CCCCC(CC)CN(Cc1ccc(C(=O)NCCC(=O)O)cc1)C(=O)Nc1cccc(C#N)c1 (centres unmarked) [Example 20, 3-{4-[3-(3-Cyanophenyl)-1-(2-ethylhexyl)ureidomethyl]benzoylamino}propionic acid]",2370 nM

# The next lines start with the values.
row,IC50,Structure (SMILES)
1,133 nM,"CC(C)(C)C1CCC(N(Cc2ccc(C(=O)Nc3nn[nH]n3)cc2)C(=O)/C=C/c2c(Cl)cccc2Cl)CC1 (centres unmarked) [Example 552, 4-({(4-tert-Butylcyclohexyl)-[3-(2,6-dichlorophenyl)acryloyl]amino}methyl)-N-(2H-tetrazol-5-yl)benzamide]"
2,319 nM,"CC(=O)c1ccc(NC(=O)N(Cc2ccc(C(=O)Nc3nn[nH]n3)cc2)C2CCC(C(C)(C)C)CC2)cc1 (centres unmarked) [Example 273, 4-[3-(4-Acetylphenyl)-1-(4-tert-butylcyclohexyl)ureidomethyl]-N-(2H-tetrazol-5-yl)benzamide]"
3,111 nM,"CC(C)(C)C1CCC(N(Cc2ccc(C(=O)Nc3nn[nH]n3)cc2)C(=O)c2ccc(Cc3ccccc3)cc2)CC1 (centres unmarked) [Example 512, 4-{[(4-tert-Butylcyclohexyl)-(4-benzylbenzoyl)amino]methyl}-N-(2H-tetrazol-5-yl)benzamide]"
4,38 nM,"CSc1ccc(NC(=O)N(Cc2ccc(C(=O)Nc3nn[nH]n3)cc2)c2ccc(C3CCCCC3)cc2)cc1 [Example 298, 4-[1-(4-Cyclohexylphenyl)-3-(4-methylsulfanylphenyl)ureidomethyl]-N-(2H-tetrazol-5-yl)benzamide]"
5,22 nM,"CC(c1ccc(C(=O)Nc2nn[nH]n2)cc1)N(C(=O)Nc1ccc(OC(F)(F)F)cc1)c1ccc(C(C)(C)C)cc1 (centres unmarked) [Example 646, 4-{1-[1-(4-tert-Butylphenyl)-3-(4-trifluoromethoxyphenyl)ureido]ethyl}-N-(2H-tetrazol-5-yl)benzamide]"
6,11 nM,"O=C(Nc1nn[nH]n1)c1ccc(CN(C(=O)NCc2ccccc2-c2ccccc2)c2ccc(C3CCCCC3)cc2)cc1 [Example 354, 4-[3-Biphenyl-2-ylmethyl-1-(4-cyclohexylphenyl)ureidomethyl]-N-(2H-tetrazol-5-yl)benzamide]"
7,505 nM,"O=C(Nc1nn[nH]n1)c1ccc(CN(C(=O)c2ccc(C3CCCCC3)cc2)c2ccc(C3CCCCC3)cc2)cc1 [Example 484, 4-{[(4-Cyclohexylphenyl)-(4-cyclohexylbenzoyl)amino]methyl}-N-(2H-tetrazol-5-yl)benzamide]"
8,1090 nM,"O=C(Nc1nn[nH]n1)c1ccc(CN(C(=O)Nc2cc(Cl)sc2Cl)c2ccc(C3CCCCC3)cc2)cc1 [Example 335, 4-[1-(4-Cyclohexylphenyl)-3-(2,5-dichlorothiophen-3-yl)ureidomethyl]-N-(2H-tetrazol-5-yl)benzamide]"
9,450 nM,"CC(C)(C)C1CCC(N(Cc2ccc(C(=O)Nc3nn[nH]n3)cc2)C(=O)c2cccc3ccccc23)CC1 (centres unmarked) [Example 515, 4-{[(4-tert-Butylcyclohexyl)-(naphth-1-ylcarbonyl)amino]methyl}-N-(2H-tetrazol-5-yl)benzamide]"
10,55 nM,"CC(C)(C)C1CCC(N(Cc2ccc(C(=O)Nc3nn[nH]n3)cc2)C(=O)/C=C/c2ccc(Cl)cc2)CC1 (centres unmarked) [Example 549, 4-({(4-tert-Butylcyclohexyl)-[3-(4-chlorophenyl)acroloyl]amino}methyl)-N-(2H-tetrazol-5-yl)benzamide]"
11,2200 nM,"COc1ccc(NC(=O)N(Cc2ccc(C(=O)NCCC(=O)O)cc2)C2CCC(C(C)(C)C)CC2)cc1 (centres unmarked) [Example 31, 3-{4-[1-(4-tert-Butylcyclohexyl)-3-(4-methoxyphenyl)ureidomethyl]benzoyl}aminopropionic acid]"

# Same assay, conditions: Glu Bd Assay (III) IC50 (nM), BHK cell membranes, WGA SPA beads, 125I-glucagon
row,Structure (SMILES),IC50
1,"CC(C)(C)C1CCC(N(Cc2ccc(C(=O)NCCC(=O)O)cc2)C(=O)Nc2ccc(C#N)cc2)CC1 (centres unmarked) [Example 99, 3-{4-[1-(4-tert-Butylcyclohexyl)-3-(4-cyanophenyl)ureidomethyl]benzoylamino}propionic acid]",1050 nM

# Target: T2, cloned human glucagon receptor (Homo sapiens, UniProt P47871)
# T2 construct: expressed in transfected cells; plasma membrane preparation
# Assay: Glucagon Binding Assay (II)
# Conditions: plasma membranes of BHK cells expressing the receptor; read-out: Glu Bd Assay (II) IC50
# Method: Binding of compounds to the glucagon receptor was determined in a competition binding assay using the cloned human glucagon receptor.
# The receptor inserted in the pLJ6′ expression vector using EcoRI/SSt1 restriction sites (Lok et al.) was expressed in a baby hamster kidney cell line (A3 BHK 570-25).
# The homogenate was resuspended and centrifuged again. The final precipitate containing the plasma membranes was suspended in buffer and stored at −80° C. until use.
# Binding assays were carried out in duplicate in polypropylene tubes or microtiter plates. The buffer used in this assay was 50 mM HEPES pH 7.4 containing 5 mM EGTA, 5 mM MgCl2 and 0.005% Tween 20. Sample (glucagon (Bachem CA) or test compounds) was added to each tube or well. Tracer (˜25.000 cpm) was diluted in buffer and was added to each tube or well. 0.5 mg freshly thawed plasma membrane protein diluted in buffer was then added in aliquots to each tube or well. Tubes or plates were incubated at 37° C. for 1 hour. Non-specific binding was determined with 10^−7 M of glucagon. Bound tracer and unbound tracer were then separated by vacuum filtration. The tubes or wells were washed twice with 0.01% Triton X-100 buffer. Scintillation fluid was added to the plates and radioactivity was quantified using a scintillation counter.
# T2 sequence (P47871 26-477): as above
row,IC50,Structure (SMILES)
1,167 nM,"O=C(O)CCNC(=O)c1ccc(CN(Cc2cccc(Cl)c2)Cc2cccc(Cl)c2)cc1 [Example 154, 3-(4-{[Bis-(3-chlorobenzyl)amino]methyl}benzoylamino)propionic acid]"
2,541 nM,"CC(C)(C)[C@H]1CC[C@@H](N(Cc2ccc(C(=O)NCCC(=O)O)cc2)NC(=O)c2ccc(F)c(F)c2)CC1 [Example 589, 3-{4-[N-(cis-4-tert-Butylcyclohexyl)-N′-(3,4-difluorobenzoyl)hydrazinomethyl]benzoylamino}propionic acid]"
3,677 nM,"C[C@@H](NC(=O)N(Cc1ccc(C(=O)NCCC(=O)O)cc1)c1ccc(C2CCCCC2)cc1)c1ccccc1 [Example 608, 3-{4-[1-(4-Cyclohexylphenyl)-3-((1R)-1-phenylethyl)ureidomethyl]benzoylamino}propionic acid]"

# Same assay, conditions: screened at 1 μM; library compounds; read-out: displacement of the glucagon tracer when screened at 1 μM concentration in the glucagon binding assay II
row,inhibition at 1 µM,Structure (SMILES)
1,> 50%,"O=C(O)CCNC(=O)c1ccc(CN(C(=O)Nc2ccc(Cl)c(C(F)(F)F)c2)C2C[C@H]2c2ccccc2)cc1 (stereo in doubt) [Example 188, 3-{4-[3-(4-Chloro-3-trifluoromethylphenyl)-1-(2-phenylcyclopropyl)ureidomethyl]benzoylamino}propionic acid]"
2,> 50%,"O=C(O)CCNC(=O)c1ccc(CN(Cc2ccccc2OC(F)(F)F)C(=O)Nc2ccc3ccccc3c2)cc1 [Example 115, 3-{4-[1-(2-Trifluoromethoxybenzyl)-3-naphthalene-2-ylureidomethyl]benzoylamino)propionic acid]"
3,> 50%,"Cc1cc(C)cc(NC(=O)N(Cc2ccc(OCCCC(=O)O)cc2)C2CCC(C(C)(C)C)CC2)c1 (centres unmarked) [Example 227, 4-{4-[1-(4-tert-Butylcyclohexyl)-3-(3,5-dimethylphenyl)ureidomethyl]phenoxy}butyric acid]"
4,> 50%,"CN1C(=O)c2ccc(NC(=O)N(Cc3ccc(C(=O)NCCC(=O)O)cc3)C3CCC(C(C)(C)C)CC3)cc2C1=O (centres unmarked) [Example 209, 3-{4-[1-(4-tert-Butylcyclohexyl)-3-(2-methyl-1,3-dioxo-2,3-dihydro-1H-isoindol-5-yl)ureidomethyl]benzoylamino}propionic acid]"
5,> 50%,"CC(C)(C)C1CCC(N(Cc2cccc(C(=O)NCCC(=O)O)c2)C(=O)Nc2ccc(OC(F)(F)F)cc2)CC1 (centres unmarked) [Example 134, 3-{3-[1-(4-tert-Butylcyclohexyl)-3-(4-trifluoromethoxyphenyl)ureidomethyl]benzoylamino)propionic acid]"
6,> 50%,"COc1cc(CN(Cc2ccc(C(=O)NCCC(=O)O)cc2)C(=O)Nc2ccc3c(c2)OCO3)ccc1O [Example 122, 3-{4-[1-(4-Hydroxy-3-methoxybenzyl)-3-(3,4-methylenedioxyphenyl)ureidomethyl]benzoylamino)propionic acid]"

row,Structure (SMILES),inhibition at 1 µM
1,"CCCCOc1ccc(NC(=O)N(Cc2ccc(C(=O)NCCC(=O)O)s2)Cc2ccccc2OC(F)(F)F)cc1 [Example 125, 3-{5-[1-(2-Trifluoromethoxybenzyl)-3-(4-butoxyphenyl)ureidomethyl]thiophene-2-carbonylamino)propionic acid]",> 50%
